Data: PubChem BioAssay (NCI)
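Cultured in 96-well plates, cells were exposed to test compound for 48 hours across five concentrations. Definition used: TGI = concentration required for complete inhibition of growth.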

Tests used:
Experiment in all cases: NCI tumour cell line growth inhibition, 48 h
[1] = test system: A498 renal
[2] = test system: HCT-116 colon
[3] = test system: HOP-62 NSCLC
[4] = test system: HT29 colon
[5] = test system: KM12 colon
[6] = test system: MDA-MB-231 breast
[7] = test system: MOLT-4 leukemia
[8] = test system: OVCAR-4 ovarian
[9] = test system: OVCAR-5 ovarian
[10] = test system: SK-MEL-28 melanoma
[11] = test system: HOP-92 NSCLC
[12] = test system: HS 578T breast

| SMILES | TGI [1] [µM] | TGI [2] [µM] | TGI [3] [µM] | TGI [4] [µM] | TGI [5] [µM] | TGI [6] [µM] | TGI [7] [µM] | TGI [8] [µM] | TGI [9] [µM] | TGI [10] [µM] | TGI [11] [µM] | TGI [12] [µM] |
| --- | --- | --- | --- | --- | --- | --- | --- | --- | --- | --- | --- | --- |
| C=C(C(=O)OC)[C@@H]1C[C@@H](OC(C)=O)C2=C[C@H](C[C@@]3(C)O[C@@H]3C3=CC(C)=C(O3)[C@H]1OC(C)=O)OC2=O | 33.8 | 24.3 | 67.2 | 76.9 | 43.7 | 44.1 | 6.72 | > 100 | 36.6 | 33.2 | – | – |
| CSCSCC(CO)NC(=O)/C(C)=C\c1c(C)[nH]c(=O)[nH]c1=O (stereo unspecified) | > 250 | > 250 | > 250 | > 250 | > 250 | – | > 250 | > 250 | > 250 | > 250 | 23.9 | – |
| COC(=O)/C=C1/OC(c2ccccc2)=C(C)C1=O | 32.8 | 15.4 | 31.4 | 4.79 | 27.1 | 15.7 | > 100 | – | 30.6 | 31.1 | 26.2 | 83.9 |
| Cc1ccc2c(=O)cc(-c3ccc(C)s3)[nH]c2n1 | > 70.9 | > 100 | > 100 | – | 15.9 | > 100 | > 100 | > 100 | > 100 | – | > 100 | – |
| O=[N+]([O-])c1ccc(-n2nc3ccc4c(no[n+]4[O-])c3n2)cc1 | – | > 100 | > 100 | > 100 | > 100 | > 100 | > 100 | > 100 | > 100 | > 100 | > 100 | > 100 |
| CCN(CC)CCN(C)c1ccc(CO)c2c1C(=O)c1ccccc1S2=O (stereo unspecified) | 23.4 | 3.97 | 8.71 | 2.95 | 4.55 | 7.7 | – | 11.7 | 24.5 | 10.2 | 30.5 | 28.5 |
| CCC(C)[C@@H](Nc1c(O)c2c(c(O)c1Cl)C(=O)C=CC2=O)C(=O)OC (stereo partly specified) | – | 6.94 | > 10 | > 10 | > 10 | 7.81 | 5.94 | 8.12 | > 10 | – | > 10 | > 10 |
| Cn1c2ccccc2c(=O)c2c(O)cc3c(c21)C=CC(C)(C)O3 | > 25 | > 25 | > 25 | > 25 | > 25 | – | – | > 25 | > 25 | > 25 | > 25 | – |
| CCOP(=O)(OCC)C(NC(=O)C(C(F)(F)F)C(F)(F)F)c1ccccc1 (stereo unspecified) | – | > 100 | > 100 | > 100 | > 100 | > 100 | > 100 | > 100 | > 100 | > 100 | > 100 | > 100 |
| Nc1ncnc2c1ncn2C1CCC(CP(=O)(O)O)C1 (stereo unspecified) | – | > 100 | > 100 | > 100 | > 100 | > 100 | – | > 100 | > 100 | > 100 | – | > 100 |
